We go through 1 substance from patent US20190049456A1, “METHOD FOR DETECTING OR SEPARATING/OBTAINING CIRCULATING TUMOR CELL EMPLOYING CELL PROLIFERATION METHOD” (priority 2016, published 2019).

This assay has as its system circulating tumor cell (CTC). Kind of assay: CTC obtainment test (CTCs-inducing ability / CTC yield efficiency) by culture of patient PBMCs in test culture media. Format: cell-based, human. As to conditions: additive component study. On the procedure: Examples of the present invention followed experimental methods given below. Specifically, all experimental samples (peripheral blood from various cancer patients who donated blood) were aseptically treated by procedures given below. In the case where infections by various viruses such as HBV and HCV were found in advance according to information from each cooperating facility, the treatment thereof was tested aside from a non-infected group and proper medical waste treatment was carried out by medical waste treatment professionals. 1. A disposable 30 ml syringe for blood collection containing an appropriate amount of an anticoagulant heparin sodium (0.05 ml) was provided, and a disposable 30 ml blood collection syringe for serum procurement containing no heparin sodium was also provided. These syringes were respectively connected to insertion ports of L-type 180° three-way stopcock, while an appropriate 18-, 21- or 24-gauge butterfly needle was connected to the vascular vessel side to prepare for blood collection. 30 ml of blood per each sample was collected, and the following separation operation was carried out. 2. For serum collection, the blood collection syringe barrel with a needle put thereon was placed at 37° C. for 1 hour in a 5% CO2 incubator, followed by centrifugation at 3,000 rpm (800 G) at 4° C. for 30 minutes. […]

On to lipopolysaccharide [LPS], for which the CTC-inducing effect result is on record as “slightly observed”.
